Assay [1] deals with T1, human Cystic Fibrosis Transmembrane Conductance Regulator (CFTR) harboring the ΔF508 mutation (Homo sapiens, UniProt P13569, DEL508-508).
T1 construct: expressed in transfected cells; host or cells: H441 carcinoma cell line (G418 selection)
As to the kind of experiment: H441 cell Emax and EC50: HRP-tagged ΔF508-CFTR cell-surface luminescence assay. In kind it is cell-based. Conditions: H441 cells expressing HRP-tagged ΔF508-CFTR, 27° C. for two nights; for EC50: 15-point dose-response; for Emax: NCI-H441, % of maximum VX809 signal. The essentials: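 H441 cells expressing ΔF508-CFTR with HRP fused in extracellular loop 4 (CMV promoter), ~10K cells/well, 15-point dose range 24.5 to 0.001 μM, incubated at 27° C. for two nights. Surface CFTR read by Luminata Forte luminescence; Emax as % of maximum VX809 signal, plus EC50.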

Assay [2] deals with T2, CFTR (ΔF508 homozygous CF-HBE cells) (Homo sapiens, UniProt P13569, DEL508-508).
T2 construct: Primary human bronchial epithelial cells from a ΔF508 homozygous CF donor; host or cells: primary CF-HBE cells (ΔF508/ΔF508 donor)
As to the kind of experiment: TECC24 AUC fold over DMSO @10 uM: CFTR-mediated transepithelial chloride transport in primary CF-HBE cells. In kind it is cell-based. Conditions: 10 μM test agent, 48 hours, forskolin-stimulated IEQ AUC divided by vehicle AUC. A digest of the protocol: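 Primary ΔF508-homozygous CF bronchial epithelial cells were exposed to test agent for 48 h at 36.5° C, then VT and TEER were recorded with benzamil (10 μM), forskolin (10 μM) stimulation and CFTR inhibitor-172 (20 μM) at the end. AUC of equivalent Cl- current between forskolin and inhibitor is expressed as fold over DMSO vehicle.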

The values that follow come from US12630521B2, “Arylamides and methods of use thereof” (Genzyme Corporation, priority 2019, dated 2026).

SMILES strings stand for the structures.

The term EC50 denotes the midpoint of the concentration-response curve. One may read the Emax as the size of the effect at its maximum, as opposed to the concentration needed.

T2 sequence (P13569 with tags, fused parts or gaps DEL508-508): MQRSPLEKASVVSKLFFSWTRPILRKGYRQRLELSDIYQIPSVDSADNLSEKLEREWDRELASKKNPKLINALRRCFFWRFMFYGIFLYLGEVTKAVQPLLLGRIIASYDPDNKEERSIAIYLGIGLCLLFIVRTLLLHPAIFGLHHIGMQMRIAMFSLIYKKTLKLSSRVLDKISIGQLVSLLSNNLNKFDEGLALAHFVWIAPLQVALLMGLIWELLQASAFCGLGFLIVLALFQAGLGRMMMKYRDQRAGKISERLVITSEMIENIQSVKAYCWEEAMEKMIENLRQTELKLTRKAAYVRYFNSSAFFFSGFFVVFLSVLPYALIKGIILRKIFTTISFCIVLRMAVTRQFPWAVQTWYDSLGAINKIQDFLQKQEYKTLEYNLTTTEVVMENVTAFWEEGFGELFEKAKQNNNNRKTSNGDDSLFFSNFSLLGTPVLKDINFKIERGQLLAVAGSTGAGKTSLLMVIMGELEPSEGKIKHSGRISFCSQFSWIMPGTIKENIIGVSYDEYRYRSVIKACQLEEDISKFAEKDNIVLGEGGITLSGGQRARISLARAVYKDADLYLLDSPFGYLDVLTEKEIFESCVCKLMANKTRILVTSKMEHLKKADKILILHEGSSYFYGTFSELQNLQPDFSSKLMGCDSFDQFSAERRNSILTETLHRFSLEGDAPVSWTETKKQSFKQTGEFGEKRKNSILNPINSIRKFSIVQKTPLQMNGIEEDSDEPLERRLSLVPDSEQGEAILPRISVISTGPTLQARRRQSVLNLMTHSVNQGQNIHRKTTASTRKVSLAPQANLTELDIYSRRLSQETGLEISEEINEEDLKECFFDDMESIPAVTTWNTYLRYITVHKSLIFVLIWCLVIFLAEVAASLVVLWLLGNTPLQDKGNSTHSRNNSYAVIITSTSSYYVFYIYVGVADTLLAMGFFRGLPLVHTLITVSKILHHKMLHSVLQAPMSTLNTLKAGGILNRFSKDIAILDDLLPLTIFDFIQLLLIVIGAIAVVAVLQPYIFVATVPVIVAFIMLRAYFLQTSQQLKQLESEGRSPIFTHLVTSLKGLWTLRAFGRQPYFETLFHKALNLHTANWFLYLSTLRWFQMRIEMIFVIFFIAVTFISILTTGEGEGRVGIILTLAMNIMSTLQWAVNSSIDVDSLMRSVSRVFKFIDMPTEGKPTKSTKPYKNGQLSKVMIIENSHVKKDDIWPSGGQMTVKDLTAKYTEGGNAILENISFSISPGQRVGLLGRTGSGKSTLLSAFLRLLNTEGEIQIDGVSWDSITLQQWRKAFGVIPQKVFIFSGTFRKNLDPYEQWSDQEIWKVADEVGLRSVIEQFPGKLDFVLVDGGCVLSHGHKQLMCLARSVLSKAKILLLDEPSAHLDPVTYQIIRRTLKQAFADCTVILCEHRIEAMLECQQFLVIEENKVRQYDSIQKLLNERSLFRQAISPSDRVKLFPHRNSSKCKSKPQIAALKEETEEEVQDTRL
T1 sequence (P13569 with tags, fused parts or gaps DEL508-508): as above

Turning to `CC(C)(C)[C@H](NC(=O)c1ccc2cc(Cl)sc2c1OCc1ccc(C(F)(F)F)cc1)C(=O)O` [Compound 33-33, (2S)-2-(2-chloro-7-((4-(trifluoromethyl)benzyl)oxy)-benzo[b]thiophene-6-carboxamido)-3,3-dimethylbutanoic acid], in assay [1], the EC50 was found to be 503 nM and the Emax amounted to 177%. In addition, the “TECC24 AUC fold over DMSO” value in assay [2] is recorded as “B (“B” refers to AUC @10 μM between 4-6)”.

As for `CC(C)c1cc2c(OCc3ccc(C(F)(F)F)cc3)c(C(=O)N[C@H](C(=O)O)C(C)(C)C)ccc2s1` [Compound 33-34, (2S)-2-(2-isopropyl-4-((4-(trifluoromethyl)benzyl)oxy)-benzo[b]thiophene-5-carboxamido)-3,3-dimethylbutanoic acid], in assay [1], a half-maximal response (EC50) required 637 nM and the Emax was 238%. For the same molecule, the “TECC24 AUC fold over DMSO” value in assay [2] was “A (“A” refers to AUC @10 μM > 6)”.

For `CCC(C)(C)[C@H](NC(=O)c1ccc2sc(C(F)(F)F)cc2c1OCc1ccc(OC(F)(F)F)cc1)C(=O)O` [Compound 33-35, (2S)-3,3-dimethyl-2-(4-((4-(trifluoromethoxy)benzyl)oxy)-2-(trifluoromethyl)-benzo[b]thiophene-5-carboxamido)pentanoic acid], in assay [1], it took 678 nM to reach a half-maximal effect (EC50) and the Emax is 199%. In addition, in assay [2], the “TECC24 AUC fold over DMSO” value is “A (“A” refers to AUC @10 μM > 6)”.

Turning to `CCC(C)(C)[C@H](NC(=O)c1ccc2sc(C(F)F)cc2c1OCc1ccc(C(F)(F)F)cc1)C(=O)O` [Compound 33-36, (2S)-2-(2-(difluoromethyl)-4-((4-(trifluoromethyl)benzyl)oxy)-benzo[b]thiophene-5-carboxamido)-3,3-dimethylpentanoic acid], in assay [1], the concentration giving a half-maximal response (EC50) turned out to be 750 nM and the Emax was found to be 165%. For the same molecule, the “TECC24 AUC fold over DMSO” value in assay [2] was “A (“A” refers to AUC @10 μM > 6)”.

In assay [1], `CCC(C)(C)[C@H](NC(=O)c1ccc2sc(Cl)c(C)c2c1OCc1ccc(OC(F)(F)F)cc1)C(=O)O` [Compound 34-1, (S)-2-(2-chloro-3-methyl-4-((4-(trifluoromethoxy)benzyl)oxy)-benzo[b]thiophene-5-carboxamido)-3,3-dimethylpentanoic acid] came in with a concentration for a half-maximal effect (EC50) of 358 nM and a maximum response (Emax) of 179%. Further, in assay [2], the “TECC24 AUC fold over DMSO” value was “A (“A” refers to AUC @10 μM > 6)”.

In assay [1], `Cc1c(Cl)sc2ccc(C(=O)N[C@H](C(=O)O)C3(C)CCC3)c(OCc3ccc(C(F)(F)F)cc3)c12` [Compound 34-2, (S)-2-(2-chloro-3-methyl-4-((4-(trifluoromethyl)benzyl)oxy)-benzo[b]thiophene-5-carboxamido)-2-(1-methylcyclobutyl)acetic acid] gave an EC50 of 1250 nM and an Emax of 133%. For the same molecule, the “TECC24 AUC fold over DMSO” value in assay [2] is listed as “A (“A” refers to AUC @10 μM > 6)”.

In assay [1], `CCC(C)(C)[C@H](NC(=O)c1ccc2sc(Cl)c(C)c2c1OCc1ccc(C(F)(F)F)cc1)C(=O)O` [Compound 34-3] returned an EC50 of 406 nM and an Emax of 222%. For the same molecule, in assay [2], the “TECC24 AUC fold over DMSO” value is on record as “A (“A” refers to AUC @10 μM > 6)”.

As for `Cc1c(Cl)sc2ccc(C(=O)N[C@H](C(=O)O)C(C)(C)C)c(OCc3ccc(OC(F)(F)F)cc3)c12` [Compound 34-4], in assay [1], the EC50 is 281 nM and the maximum response (Emax) was determined as 159%. Besides, in assay [2], the “TECC24 AUC fold over DMSO” value is on record as “A (“A” refers to AUC @10 μM > 6)”.

In assay [1], `Cc1c(Cl)sc2ccc(C(=O)N[C@H](C(=O)O)C3(C)CC3)c(OCc3ccc(OC(F)(F)F)cc3)c12` [Compound 34-5, (S)-2-(2-chloro-3-methyl-4-((4-(trifluoromethoxy)benzyl)oxy)-benzo[b]thiophene-5-carboxamido)-2-(1-methylcyclopropyl)acetic acid] gave an EC50 of 509 nM and an Emax of 106%. Moreover, in assay [2], the “TECC24 AUC fold over DMSO” value is on record as “A (“A” refers to AUC @10 μM > 6)”.

As to `Cc1c(Cl)sc2ccc(C(=O)N[C@H](C(=O)O)C3(C)CCC3)c(OCc3ccc(OC(F)(F)F)cc3)c12` [Compound 34-6, (S)-2-(2-chloro-3-methyl-4-((4-(trifluoromethoxy)benzyl)oxy)-benzo[b]thiophene-5-carboxamido)-2-(1-methylcyclobutyl)acetic acid], in assay [1], a half-maximal response (EC50) required 1190 nM and the Emax was determined as 155%. The “TECC24 AUC fold over DMSO” value in assay [2] is given as “A (“A” refers to AUC @10 μM > 6)”.

In assay [1], `Cc1c(Cl)sc2ccc(C(=O)N[C@H](C(=O)O)C3(C)CC3)c(OCc3ccc(C(F)(F)F)cc3)c12` [Compound 34-7, (S)-2-(2-chloro-3-methyl-4-((4-(trifluoromethyl)benzyl)oxy)-benzo[b]thiophene-5-carboxamido)-2-(1-methylcyclopropyl)acetic acid] returned an EC50 of 612 nM and an Emax of 84.2%. Also, the “TECC24 AUC fold over DMSO” value in assay [2] is given as “A (“A” refers to AUC @10 μM > 6)”.

In assay [1], `Cc1c(Cl)sc2ccc(C(=O)N[C@H](C(=O)O)C(C)(C)C)c(OCc3ccc(C(F)(F)F)cc3)c12` [Compound 35-1, (2S)-2-[[2-chloro-3-methyl-4-[[4-(trifluoromethyl)phenyl]methoxy]-benzothiophene-5-carbonyl]amino]-3,3-dimethyl-butanoic acid] showed an EC50 of 618 nM and an Emax of 151%. In addition, the “TECC24 AUC fold over DMSO” value in assay [2] is recorded as “A (“A” refers to AUC @10 μM > 6)”.

Take `Cc1csc2ccc(C(=O)N[C@H](C(=O)O)C(C)(C)C)c(OCc3ccc(C(F)(F)F)cc3)c12` [Compound 35-2, (2S)-3,3-dimethyl-2-[[3-methyl-4-[[4-(trifluoromethyl)phenyl]methoxy]-benzothiophene-5-carbonyl]amino]butanoic acid]: in assay [1], the response was half-maximal at 470 nM (EC50) and the Emax turned out to be 146%. Also, the “TECC24 AUC fold over DMSO” value in assay [2] is “C (“C” refers to AUC @10 μM < 4)”.

As to `Cc1nc2c(OCc3ccc(C(F)(F)F)cc3)c(C(=O)N[C@H](C(=O)O)C(C)(C)C)ccc2s1` [Compound 35-3, (2S)-3,3-dimethyl-2-[[2-methyl-4-[[4-(trifluoromethyl)phenyl]methoxy]-1,3-benzothiazole-5-carbonyl]amino]butanoic acid], in assay [1], the EC50 is 662 nM and the Emax was found to be 286%. In addition, the “TECC24 AUC fold over DMSO” value in assay [2] is “A (“A” refers to AUC @10 μM > 6)”.
